Each structure is given as a SMILES string. Structures can show the parent of a compound that is named as a salt. Where two headings read alike, the source gives them in different places.

The test system of this experiment is cultured human mast cells (CHMC). Kind of experiment: CHMC low cell density IgE activation: tryptase assay. It counts as cell-based. In a few lines:
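Low-density CHMC, 1000-1500 cells/well in MT; 1 hr 37 °C; anti-IgE challenge 30 min 37 °C; supernatant tryptase via fluorogenic substrate, 30 min RT.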

The mark [1] stands for this setting: low cell density, IgE activation, 3 pt, read-out: LD Tryptase, CHMC, IgE, 3 pt.
The mark [2] stands for this setting: low cell density, IgE activation, 8 pt, read-out: LD Tryptase, CHMC, IgE, 8 pt.
Where [3] appears, read: Homo sapiens, Mast cell, low cell density, IgE activation, 8 pt, read-out: LD Tryptase, CHMC, IgE, 8 pt.
Where [4] appears, read: Homo sapiens, Mast cell, low cell density, IgE activation, 3 pt, read-out: LD Tryptase, CHMC, IgE, 3 pt.

As to `C[C@@H]1Oc2ccc(Nc3nc(Nc4ccc5c(c4)nc(N4CCOCC4)n5C)ncc3F)cc2NC1=O` [Compound 945, (S)-5-Fluoro-N2-[1-methyl-2-(4-morpholino)benzimidazol-5-yl]-N4-(2-methyl-3-oxo-2H,4H-benz[1,4]oxazin-6-yl)-2,4-pyrimidinediamine], the IC50 was less than 10 µM under setting [1] and less than 10 µM under setting [2].

As for `Cn1c(N2CCOCC2)nc2cc(Nc3ncc(F)c(Nc4ccc5c(n4)NC(=O)C(C)(C)O5)n3)ccc21` [Compound 946, N4-(2,2-Dimethyl-3-oxo-4H-5-pyrido[1,4]oxazin-6-yl)-5-fluoro-N2-[1-methyl-2-(4-morpholino)benzimidazol-5-yl]-2,4-pyrimidinediamine], the IC50 was less than 10 µM under setting [1] and less than 10 µM under setting [2].

As for `Cc1nc2cc(Nc3ncc(F)c(Nc4ccc(Cl)c(Cl)c4)n3)ccc2n1CCCO` [Compound 947], under setting [3], the IC50 is less than 10 µM.

Turning to `COc1ccc(Nc2nc(Nc3ccc4c(c3)nc(C)n4CCCO)ncc2F)cc1Cl` [Compound 948], the IC50 under setting [3] is less than 10 µM.

In the case of `Cc1nc2cc(Nc3ncc(F)c(Nc4ccc5c(c4)NC(=O)C(C)(C)O5)n3)ccc2n1CCCO` [Compound 949], the IC50 under setting [3] is less than 10 µM.

Consider `Cc1nc2cc(Nc3ncc(F)c(Nc4ccc5c(c4)NC(=O)[C@H](C)O5)n3)ccc2n1CCCO` [Compound 950], for which, under setting [3], the IC50 is less than 10 µM.

Take `Cc1nc2cc(Nc3ncc(F)c(Nc4ccc5c(n4)NC(=O)C(C)(C)O5)n3)ccc2n1CCCO` [Compound 951, N4-(2,2-Dimethyl-3-oxo-4H-5-pyrido[1,4]oxazin-6-yl)-5-fluoro-N2-[1-(3-hydroxypropyl)-2-methylbenzimidazol-5-yl]-2,4-pyrimidinediamine]: the IC50 is, setting by setting: under setting [1], less than 10 µM; under setting [2], less than 10 µM.

Take `CC(=O)NCCCn1c(C)nc2cc(Nc3ncc(F)c(Nc4ccc5c(c4)NC(=O)C(C)(C)O5)n3)ccc21` [Compound 952]: the IC50 under setting [4] was less than 10 µM and the IC50 under setting [3] was less than 10 µM.

With `CC(=O)NCCCn1c(C)nc2cc(Nc3ncc(F)c(Nc4ccc5c(n4)NC(=O)C(C)(C)O5)n3)ccc21` [Compound 953, N2-[1-[3-(N-Acetylamino)propyl]-2-methylbenzimidazol-5-yl]-N4-(2,2-Dimethyl-3-oxo-4H-5-pyrido[1,4]oxazin-6-yl)-5-fluoro-2,4-pyrimidinediamine], the IC50 was less than 10 µM under setting [1] and less than 10 µM under setting [2].

Take `Cn1c(CN2CCOCC2)nc2cc(Nc3ncc(F)c(Nc4ccc(Cl)c(Cl)c4)n3)ccc21` [Compound 954, N4-(3,4-Dichlorophenyl)-5-fluoro-N2-[1-methyl-2-(4-morpholinomethyl)benzimidazol-5-yl]-2,4-pyrimidinediamine]: the IC50 under setting [1] is less than 10 µM and the IC50 under setting [2] was less than 10 µM.

For the compound `COc1ccc(Nc2nc(Nc3ccc4c(c3)nc(CN3CCOCC3)n4C)ncc2F)cc1Cl` [Compound 955, N4-(3-Chloro-4-methoxyphenyl)-5-fluoro-N2-[1-methyl-2-(4-morpholinomethyl)benzimidazol-5-yl]-2,4-pyrimidinediamine], the IC50 under setting [2] was less than 10 µM.

As to `Cn1c(CN2CCOCC2)nc2cc(Nc3ncc(F)c(Nc4ccc5c(c4)NC(=O)C(C)(C)O5)n3)ccc21` [Compound 956, N4-(2,2-Dimethyl-3-oxo-4H-benz[1,4]oxazin-6-yl)-5-fluoro-N2-[1-methyl-2-(4-morpholinomethyl)benzimidazol-5-yl]-2,4-pyrimidinediamine], the IC50 under setting [2] is less than 10 µM.

As to `C[C@@H]1Oc2ccc(Nc3nc(Nc4ccc5c(c4)nc(CN4CCOCC4)n5C)ncc3F)cc2NC1=O` [Compound 957, (S)-5-Fluoro-N2-[1-methyl-2-(4-morpholinomethyl)benzimidazol-5-yl]-N4-(2-methyl-3-oxo-2H,4H-benz[1,4]oxazin-6-yl)- -2,4-pyrimidinediamine], the IC50 by setting is: under setting [1], less than 10 µM; under setting [2], less than 10 µM.

Regarding `Cn1c(CN2CCOCC2)nc2cc(Nc3ncc(F)c(Nc4ccc5c(n4)NC(=O)C(C)(C)O5)n3)ccc21` [Compound 958, N4-(2,2-Dimethyl-3-oxo-4H-5-pyrido[1,4]oxazin-6-yl)-5-fluoro-N2-[1-methyl-2-(4-morpholinomethyl)benzimidazol-5-yl]-2,4-pyrimidinediamine], the IC50 under setting [2] is less than 10 µM.

Take `COc1ccc(Nc2nc(Nc3ccc4[nH]c(CN5CCOCC5)nc4c3)ncc2F)cc1Cl` [Compound 960, N4-(3-Chloro-4-methoxyphenyl)-5-fluoro-N2-[2-(4-morpholinomethyl)-1H-benzimidazol-5-yl]-2,4-pyrimidinediamine]: the IC50 under setting [2] is less than 10 µM.

In the case of `CC1(C)Oc2ccc(Nc3nc(Nc4ccc5[nH]c(CN6CCOCC6)nc5c4)ncc3F)cc2NC1=O` [Compound 961, N4-(2,2-Dimethyl-3-oxo-4H-benz[1,4]oxazin-6-yl)-5-fluoro-N2-[2-(4-morpholinomethyl)-1H-benzimidazol-5-yl]-2,4-pyrimidinediamine], the IC50 under setting [3] was less than 10 µM.

For the compound `CC1(C)Oc2ccc(Nc3nc(Nc4ccc5[nH]c(CN6CCOCC6)nc5c4)ncc3F)nc2NC1=O` [Compound 962, N4-(2,2-Dimethyl-3-oxo-4H-5-pyrido[1,4]oxazin-6-yl)-5-fluoro-N2-[2-(4-morpholinomethyl)-1H-benzimidazol-5-yl]-2,4-pyrimidinediamine], under setting [3], the IC50 was less than 10 µM.

Regarding `Cc1nc2cc(Nc3ncc(F)c(Nc4ccc5c(c4)NC(=O)C(C)(C)O5)n3)ccc2n1CCCNS(C)(=O)=O` [Compound 963], the IC50 under setting [3] is less than 10 µM.

As for `Cc1nc2cc(Nc3ncc(F)c(Nc4ccc5c(n4)NC(=O)C(C)(C)O5)n3)ccc2n1CCCNS(C)(=O)=O` [Compound 964, N4-(2,2-Dimethyl-3-oxo-4H-5-pyrido[1,4]oxazin-6-yl)-5-fluoro-N2-[2-methyl-1-[3-(N-methylsulfonylamino)propyl]benzimidazol-5-yl]-2,4-pyrimidinediamine], the IC50 is less than 10 µM under setting [1] and less than 10 µM under setting [2].

With `Cn1c(CS(C)(=O)=O)nc2cc(Nc3ncc(F)c(Nc4ccc(Cl)c(Cl)c4)n3)ccc21` [Compound 965], the IC50 under setting [4] is less than 10 µM.

`COc1ccc(Nc2nc(Nc3ccc4c(c3)nc(CS(C)(=O)=O)n4C)ncc2F)cc1Cl` [Compound 966]: the IC50 under setting [4] was less than 10 µM.

On to `C[C@@H]1Oc2ccc(Nc3nc(Nc4ccc5c(c4)nc(CS(C)(=O)=O)n5C)ncc3F)cc2NC1=O` [Compound 968], for which the IC50 under setting [4] is less than 10 µM and the IC50 under setting [3] was less than 10 µM.

With `Cn1c(CS(C)(=O)=O)nc2cc(Nc3ncc(F)c(Nc4ccc5c(n4)NC(=O)C(C)(C)O5)n3)ccc21` [Compound 969, N4-(2,2-Dimethyl-3-oxo-4H-5-pyrido[1,4]oxazin-6-yl)-5-fluoro-N2-{1-methyl-2-[ (methylsulfonyl)methyl]benzimidazol-5-yl}-2,4-pyrimidinediamine], the IC50 by setting is: under setting [1], less than 10 µM; under setting [2], less than 10 µM.

Consider `CCN(CC)Cc1nc2cc(Nc3ncc(F)c(Nc4ccc(Cl)c(Cl)c4)n3)ccc2n1C` [Compound 970], for which the IC50 under setting [4] is less than 10 µM.

With `CCN(CC)Cc1nc2cc(Nc3ncc(F)c(Nc4ccc(OC)c(Cl)c4)n3)ccc2n1C` [Compound 971], the IC50 under setting [4] was less than 10 µM.

Regarding `CCN(CC)Cc1nc2cc(Nc3ncc(F)c(Nc4ccc5c(c4)NC(=O)C(C)(C)O5)n3)ccc2n1C` [Compound 972], the IC50 reads like this: under setting [4], less than 10 µM; under setting [3], less than 10 µM.

Consider `CCN(CC)Cc1nc2cc(Nc3ncc(F)c(Nc4ccc5c(c4)NC(=O)[C@H](C)O5)n3)ccc2n1C` [Compound 973], for which the IC50 under setting [4] is less than 10 µM and the IC50 under setting [3] was less than 10 µM.

As for `CCN(CC)Cc1nc2cc(Nc3ncc(F)c(Nc4ccc5c(n4)NC(=O)C(C)(C)O5)n3)ccc2n1C` [Compound 974, N2-[2-(N,N-Diethylaminomethyl)-1-methylbenzimidazol-5-yl]-N4-(2,2-dimethyl-3-oxo-4H-5-pyrido[1,4]oxazin-6-yl)-5-fluoro-2,4-pyrimidinediamine], the IC50 under setting [1] is less than 10 µM and the IC50 under setting [2] was less than 10 µM.

As to `CC1(C)Oc2ccc(Nc3nc(Nc4ccc5[nH]c(N6CCOCC6)nc5c4)ncc3F)cc2NC1=O` [Compound 976, N4-(2,2-Dimethyl-3-oxo-4H-benz[1,4]oxazin-6-yl)-5-fluoro-N2-[2-(4-morpholino)-1H-benzimidazol-5-yl]-2,4-pyrimidinediamine], the IC50 under setting [3] is less than 10 µM.

As for `CC1(C)Oc2ccc(Nc3nc(Nc4ccc5[nH]c(N6CCOCC6)nc5c4)ncc3F)nc2NC1=O` [Compound 977, N4-(2,2-Dimethyl-3-oxo-4H-5-pyrido[1,4]oxazin-6-yl)-5-fluoro-N2-[2-(4-morpholino)-1H-benzimidazol-5-yl]-2,4-pyrimidinediamine], under setting [3], the IC50 is less than 10 µM.

Regarding `COc1ccc(Nc2nc(Nc3ccc4[nH]c(N5CCOCC5)nc4c3)ncc2F)cc1Cl` [Compound 978, N4-(3-Chloro-4-methoxyphenyl)-5-fluoro-N2-[2-(4-morpholino)-1H-benzimidazol-5-yl]-2,4-pyrimidinediamine], under setting [2], the IC50 is less than 10 µM.

`CNC(=O)COc1cccc(Nc2ncc(F)c(Nc3ccc4c(n3)NC(=O)C(C)(C)O4)n2)c1` [Compound 984, N4-(2,2-Dimethyl-3-oxo-4H-5-pyrid[1,4]oxazin-6-yl)-5-fluoro-N2-[3-(N-methylamino)carbonylmethyleneoxyphenyl]-2,4-pyrimidinediamine Benzensulfonic Acid Salt]: the IC50 was less than 10 µM (Homo sapiens, Mast cell, read-out: LD Tryptase, CHMC, IgE, 3 pt) and less than 10 µM (Homo sapiens, Mast cell, read-out: LD Tryptase, CHMC, IgE, 8 pt).

Take `CNC(=O)COc1cccc(Nc2ncc(F)c(Nc3ccc4c(n3)NC(=O)C(C)(C)O4)n2)c1` [Compound 986, N4-(2,2-Dimethyl-3-oxo-4H-5-pyrid[1,4]oxazin-6-yl)-5-fluoro-N2-[3-(N-methylamino)carbonylmethyleneoxyphenyl]-2,4-pyrimidinediamine Hydrogen Chloride Salt]: the IC50 under setting [1] is less than 10 µM and the IC50 under setting [2] was less than 10 µM.

(Values after patent US20220073536A1 (Rigel Pharmaceuticals, Inc., priority 2003, published 2022).)
